{"source": "patent EP1351977B1", "about": "“ANTIMICROBIAL PSEUDOPEPTIDES” (INSTITUT NATIONAL DE LA RECHERCHE AGRONOMIQUE (INRA), priority 2001, dated 2004)", "format_in_all_cases": "cell-based", "key": {"[1]": {"system": "Helminthosporium teres sp", "experiment": "Antifungal growth inhibition test in liquid medium"}, "Cladosporium myc": {"system": "Cladosporium myc", "experiment": "Antifungal growth inhibition test in liquid medium"}, "Bacillus megaterium": {"system": "Bacillus megaterium", "experiment": "Bacterial growth inhibition test in Petri dish (solid medium), MIC", "details": "MIC extrapolated from inhibition diameter vs log10 concentration"}, "Pseudomonas fluorescens": {"system": "Pseudomonas fluorescens", "experiment": "Bacterial growth inhibition test in Petri dish (solid medium), MIC", "details": "MIC extrapolated from inhibition diameter vs log10 concentration"}, "Cladosporium sp": {"system": "Cladosporium sp", "experiment": "Antifungal growth inhibition test in liquid medium"}, "Botrytis cinerea sp": {"system": "Botrytis cinerea sp", "experiment": "Antifungal growth inhibition test in liquid medium"}, "Phytophthora myc": {"system": "Phytophthora myc", "experiment": "Antifungal growth inhibition test in liquid medium", "source_text": "(§1) Les composés des pics 5, 7 et 8 de la figure 1 ont été testées vis-à-vis d'un ensemble de champignons phytopathogènes. Trois doses (10, 20, et 40 ppm) ont été employées pour chacun des composés.\n(§2) L'activité antifongique a été détectée par un test d'inhibition de croissance en milieu liquide. Les spores des champignons à tester ont été mises en suspension dans un milieu de culture de type \"Pomme de terre-Glucose\". De préférence, on utilise 12 g de milieu Potato Dextrose Broth (Difco) pour 1 litre d'eau déminéralisée. Deux antibiotiques ont été rajoutés au milieu de culture: la tétracycline (concentration finale de 10 µg/ml) et la céfotaxime (100 µg/ml). On dépose 10 µl de chaque composé à tester dans des plaques de microtitration en présence de 90 µl de milieu de culture contenant les spores (à une concentration finale de 10^4 spores/ml). L'incubation a été réalisée en chambre humide à 30°C durant 48 heures. La croissance fongique a été observée au microscope photonique après 24 h et quantifiée après 48 heures par mesure de l'absorbance à 600 nm à l'aide d'un spectrophotomètre lecteur de plaque de microtitration. L'activité des composés contre les champignons phytopathogènes est exprimée par un pourcentage d'inhibition de croissance correspondant à 100 x (1 - absorbance avec produit/ absorbance du témoin sans produit), l'absorbance étant mesurée à 600 nm, 5 jours après le début de l'expérience."}, "Fusarium culmorum sp": {"system": "Fusarium culmorum sp", "experiment": "Antifungal growth inhibition test in liquid medium", "source_text": "as §1, §2"}, "Septoria tritici sp": {"system": "Septoria tritici sp", "experiment": "Antifungal growth inhibition test in liquid medium"}, "[2]": {"system": "Proteus vulgaris CIP58.60", "experiment": "Bacterial growth inhibition test in Petri dish (solid medium), MIC", "details": "MIC extrapolated from inhibition diameter vs log10 concentration"}, "Botrytis cinerea myc": {"system": "Botrytis cinerea myc", "experiment": "Antifungal growth inhibition test in liquid medium"}, "bactériophage lambda": {"system": "bactériophage lambda", "experiment": "Antiviral test, lysis plaque method in Top-Agar on E. coli SURE", "procedure": "L'activité antivirale des pseudopeptides selon l'invention a été démontrée vis-à-vis du bactériophage lambda. Le bactériophage λ-ZAP est naturellement lytique sur la souche E. coli SURE (Stratagène). Cette activité lytique est mesurable par la méthode des plages de lyse en gélose Top-Agar. 2 µl d'une suspension de virus à 3,5 .10^5 pfu/ml dans du tampon SM ont été mis en présence de 2 µl du pseudopeptides compris dans le pic 8 à 0,5 mg/ml dans de l'eau pure. Après 15 min d'incubation à 37°C, la suspension est mélangée à 3,5 ml de Top-Agar pré-ensemencée avec E. coli SURE à 2 .10^5 cfu/ml. La concentration de pseudopeptide dans la gélose Top-Agar est inférieure à la CMI vis-à-vis de E. coli SURE. Le mélange est coulé en boîte de Pétri puis mis à incuber à 37°C pendant 12h. Le résultat est donné dans le tableau 6."}, "Klebsiella pneumoniae": {"system": "Klebsiella pneumoniae", "experiment": "Bacterial growth inhibition test in Petri dish (solid medium), MIC", "details": "MIC extrapolated from inhibition diameter vs log10 concentration"}}, "note": "Ends that are not written are not given here.", "data": [{"substance": "Composé 8: pseudopeptide du pic n° 8 de Xenorhabdus nematophilus F1; Famille 1: Lys Lys Lys Lys Lys Gly; 1066 Da; structure en Figure 2 (KKKKKG; also: pseudopeptide modifications)", "values": [{"measurement": "pourcentage d'inhibition de croissance", "setting": "[1]; 10 ppm", "result": 76, "unit": "%"}, {"measurement": "pourcentage d'inhibition de croissance", "setting": "[1]; 20 ppm", "result": 94, "unit": "%"}, {"measurement": "pourcentage d'inhibition de croissance", "setting": "[1]; 40 ppm", "result": 92, "unit": "%"}, {"measurement": "pourcentage d'inhibition de croissance", "setting": "Cladosporium myc; 10 ppm", "result": 70, "unit": "%"}, {"measurement": "pourcentage d'inhibition de croissance", "setting": "Cladosporium myc; 20 ppm", "result": 92, "unit": "%"}, {"measurement": "pourcentage d'inhibition de croissance", "setting": "Cladosporium myc; 40 ppm", "result": 91, "unit": "%"}, {"measurement": "CMI", "setting": "Bacillus megaterium", "result": "1,5 µg/ml"}, {"measurement": "CMI", "setting": "Pseudomonas fluorescens", "result": 3, "unit": "µg/mL"}, {"measurement": "pourcentage d'inhibition de croissance", "setting": "Cladosporium sp; 10 ppm", "result": 94, "unit": "%"}, {"measurement": "pourcentage d'inhibition de croissance", "setting": "Cladosporium sp; 20 ppm", "result": 94, "unit": "%"}, {"measurement": "pourcentage d'inhibition de croissance", "setting": "Cladosporium sp; 40 ppm", "result": 94, "unit": "%"}, {"measurement": "pourcentage d'inhibition de croissance", "setting": "Botrytis cinerea sp; 10 ppm", "result": 52, "unit": "%"}, {"measurement": "pourcentage d'inhibition de croissance", "setting": "Botrytis cinerea sp; 20 ppm", "result": 95, "unit": "%"}, {"measurement": "pourcentage d'inhibition de croissance", "setting": "Botrytis cinerea sp; 40 ppm", "result": 94, "unit": "%"}, {"measurement": "pourcentage d'inhibition de croissance", "setting": "Phytophthora myc; 10 ppm", "result": 76, "unit": "%"}, {"measurement": "pourcentage d'inhibition de croissance", "setting": "Phytophthora myc; 20 ppm", "result": 78, "unit": "%"}, {"measurement": "pourcentage d'inhibition de croissance", "setting": "Phytophthora myc; 40 ppm", "result": 77, "unit": "%"}, {"measurement": "pourcentage d'inhibition de croissance", "setting": "Fusarium culmorum sp; 10 ppm", "result": 96, "unit": "%"}, {"measurement": "pourcentage d'inhibition de croissance", "setting": "Fusarium culmorum sp; 20 ppm", "result": 96, "unit": "%"}, {"measurement": "pourcentage d'inhibition de croissance", "setting": "Fusarium culmorum sp; 40 ppm", "result": 96, "unit": "%"}, {"measurement": "pourcentage d'inhibition de croissance", "setting": "Septoria tritici sp; 10 ppm", "result": 87, "unit": "%"}, {"measurement": "pourcentage d'inhibition de croissance", "setting": "Septoria tritici sp; 20 ppm", "result": 88, "unit": "%"}, {"measurement": "pourcentage d'inhibition de croissance", "setting": "Septoria tritici sp; 40 ppm", "result": 86, "unit": "%"}, {"measurement": "CMI", "setting": "[2]", "result": 100, "unit": "µg/mL"}, {"measurement": "pourcentage d'inhibition de croissance", "setting": "Botrytis cinerea myc; 10 ppm", "result": 40, "unit": "%"}, {"measurement": "pourcentage d'inhibition de croissance", "setting": "Botrytis cinerea myc; 20 ppm", "result": 70, "unit": "%"}, {"measurement": "pourcentage d'inhibition de croissance", "setting": "Botrytis cinerea myc; 40 ppm", "result": 93, "unit": "%"}, {"measurement": "inhibition du cycle lytique du bactériophage lambda", "setting": "bactériophage lambda; 250 µg/ml", "result": "> 95", "unit": "%"}, {"measurement": "Nbre de pfu/boîte", "setting": "bactériophage lambda; in presence of pseudopeptide, 15 min pre-incubation at 37°C with phage, control without pseudopeptide 700 ±50", "result": "40 ± 5", "unit": "pfu/boîte"}, {"measurement": "CMI", "setting": "Klebsiella pneumoniae", "result": 15, "unit": "µg/mL"}]}]}
